Laboratory results as given in paper PMC11847541, “Liver fatty acid binding protein FABP1 transfers substrates to cytochrome P450 4A11 for catalysis” (The Journal of Biological Chemistry, 2025).

Target: T1, P450 4A11 (Homo sapiens, UniProt Q02928)
T1 sequence (Q02928 5-519): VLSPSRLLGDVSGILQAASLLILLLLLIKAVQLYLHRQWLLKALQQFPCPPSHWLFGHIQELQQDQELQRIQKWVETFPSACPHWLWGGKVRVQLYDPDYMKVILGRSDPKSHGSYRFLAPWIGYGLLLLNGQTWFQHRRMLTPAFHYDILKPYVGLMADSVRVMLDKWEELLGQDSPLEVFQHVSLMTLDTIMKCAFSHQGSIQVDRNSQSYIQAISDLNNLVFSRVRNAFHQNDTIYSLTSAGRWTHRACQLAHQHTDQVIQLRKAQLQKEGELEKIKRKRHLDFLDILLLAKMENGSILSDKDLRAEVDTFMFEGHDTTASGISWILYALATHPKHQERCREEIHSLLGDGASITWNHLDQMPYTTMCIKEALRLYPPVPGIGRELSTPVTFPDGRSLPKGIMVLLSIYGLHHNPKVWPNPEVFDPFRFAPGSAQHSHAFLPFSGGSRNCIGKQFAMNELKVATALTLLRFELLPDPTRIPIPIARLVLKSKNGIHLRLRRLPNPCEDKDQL
Assay: Stopped-flow kinetics of palmitate binding to P450 4A11 (type I shift)
Parameters: made in house; host or cells: E. coli
Settings: P450 4A11 1 μM, palmitate 5 μM; read-out: kon to P450 4A11 (k1)
Procedure: To assess the rates of lipid binding to P450 4A11 (k1), type I spectral shift (from ∼420 nm to ∼390 nm, described previously) was monitored after rapid mixing of P450 and palmitate (Fig. 9A, magenta [substrate free], blue [substrate bound]). When P450 4A11 (1 μM) was mixed with palmitate (5 μM), slow binding kinetics were observed (Fig. 9B). Single exponential fitting of the data yielded a binding rate of 0.21 ± 0.03 s^−1 (kon = k1 = 4.2 ± 0.6 × 10^4 M^−1 s^−1).
Figure 9 Kinetics of fatty acid binding to P450 4A11.A, spectra were collected with 1 μM P450 4A11 (purple line) to which 5 μM palmitate (blue line) and 50 μM ketoconazole (red line) were successively added to induce characteristic P450 “type I” and “type II” spectral shifts, respectively. B, P450 4A11 (1 μM) was rapidly mixed with palmitate (5 μM), and the P450 blue shift (A) was monitored and fit to an exponential equation (blue line) yielding a kon value of 0.21 ± 0.03 s^−1. C, 16-OH palmitate (4 μM) and D, palmitate (10 μM) were preincubated with P450 4A11 (2 μM) and rapidly mixed with ketoconazole (100 μM), and the P450 red shift (part A) was monitored and fit to biexponential equations (red lines). […]
On-rates (kon) to P450 4A11 with lipids were determined by monitoring the hypsochromic (“blue,” “type I”) shift in the heme Soret (A418 [hexacoordinated] → A390 [pentacoordinated]) as substrate binds. […]

**Q.** `CCCCCCCCCCCCCCCC(=O)O` [Palmitate (C16), palmitate] was tested. Which kon did it give?
**A.** 42000 ± 6e+07 M⁻¹ s⁻¹
